Reference: patent publication US20240025903A1, “Bicyclic Compounds and Uses Thereof for the Treatment of Diseases” (Athira Pharma, Inc., priority 2020, published 2024)

Experiments:
HGF/MET system = biological target: T1, HGF/MET system (Homo sapiens, UniProt P08581+P14210); assay: Phospho-MET ELISA; type: cell-based; parameters: key: − indicates that the compound failed to significantly augment MET phosphorylation; + indicates maximum potency at or above 100 nM; ++ indicates maximum potency at or above 10 nM; +++ indicates maximum potency at or above 1 nM; ++++ indicates maximum potency at or above 0.1 nM; conditions: HEK293 cells, 1 ng/mL recombinant HGF, 15 minutes, pMET ELISA
T1 construct: HEK293 cells were prepared by passage into 6-well multi-plates; endogenous in cells; host or cells: HEK293
Description: Compounds were screened for potency towards the HGF/MET system using phospho-MET (pMET) ELISA kits (Cell Signaling). pMET levels were detected in samples having low (1 ng/mL) and high (10 ng/mL) concentrations of HGF.
HEK293 cells were prepared by passage into 6-well multi-plates and grown at 37° C. at 5% CO2 in DMEM+10% FBS until approximately 90% confluent. Cells were then starved for at least 8 hours in serum-free growth media.
Exemplary compounds were prepared in DMEM+0.1% FBS, diluted and added to treatment media with 1 ng/mL recombinant HGF protein (R&D Systems). Cells were incubated in triplicate at 37° C. and 5% CO2 for 15 minutes. Samples were then treated with 180 μL ice-cold RIPA (radioimmunoprecipitation assay) buffer and cells were lysed on ice for 15 minutes. Lysates were cleared by centrifugation at 16,000-g for 15 minutes and the supernatant was retained. Samples were normalized using a BCA assay of lysates to determine protein concentrations across the samples.
Between 50 and 100 μg total protein lysate was loaded into ELISA wells in pMET Sandwich ELISA kit (Cell Signaling Catalog #7227C), ensuring equal protein load in each well. The ELISA was processed according to manufacturer's instructions. After color developed, absorbance was read on an optical plate reader at 450 nm.
Potency measurements were determined using peak efficacy by scaling test compound dose treatments along a scale of 1-10 between 1 ng/mL and 10 ng/mL HGF doses according to the following formula: […]
where y is the normalized data-point, x is the raw data point, A is the mean HGF at 1 ng/mL, and B is the mean HGF at 10 ng/mL.

MDCK cells = assay: Cell scattering behavior assay; type: cell-based; parameters: key: − indicates that the compound failed to significantly promote cell scattering behavior; + indicates maximum potency at or above 100 nM; ++ indicates maximum potency at or above 10 nM; +++ indicates maximum potency at or above 1 nM; ++++ indicates maximum potency at or above 0.1 nM; conditions: 5 ng/mL HGF, 24 hours, normalized particle count vs HGF alone
Description: MDCK cells were grown under normal conditions and observed to spontaneously form tight colonies as they proliferate. MDCK cells respond to HGF treatment by moving away from each other (scattering), which is quantified to assess the amount of HGF/MET activation in the cell population. In this experiment, MDCK cells were plated in a 96-well format, treated with HGF and exemplary compounds, fluorescently stained, imaged in large fields, and scattering behavior was quantified. Quantification was determined by analyzing the number of continuous groups of cells compared to the total stained area imaged (normalized particle counts).
MDCK cells were plated at low density in black-walled imaging plates and allowed to attach overnight at 37° C. and 5% CO2 in DMEM+10% FBS. Cells were then starved to 2 hours in DMEM without FBS (“starve media”). Samples containing exemplary compounds were prepared in DMEM without FBS and included 5 ng/mL HGF protein (“treatment media”). A control curve was also prepared for each plate using HGF concentrations of 0, 5, 10, and 20 ng/mL. Starve media was replaced with treatment media and cells were incubated for 24 hours at 37° C. and 5% CO2.
After incubation, cells were fixed by replacing treatment media with cold ethanol and incubating for 20 minutes at 4° C. Cells were then rehydrated by washing with PBS and then with stain solution (fluorescent wheat germ agglutinin; WGA488 at 20 μg/mL in PBS). Cells were incubated with stain solution 30 minutes at room temperature after which stain solution was replaced with fresh PBS.
Fields of cells were imaged using an iCyte high content imager in the green wavelength. Images were converted to binary and analyzed for particle size and particle count. For the purpose of analysis, an individual cell touching no other cells or separated colonies of cells were identified as particles, and particle counts were normalized by the total signal area to account for differences in cell number. […] Compound potency was assessed by statistical increase in normalized particle count compared to HGF treatment alone.

[1] = Turbidimetric solubility assay; type: physicochemical; conditions: aqueous buffer, kinetic from dmso stock, PBS, 37° C., absorbance 620 nm
Description: Aqueous solubility is a critical drug property that helps to predict bioavailability. Generally, compounds with aqueous solubility <100 μg/ml are poor drugs.
To assess a compound's solubility by turbidity, test compounds were first dissolved in organic solvent (DMSO) at a concentration of 10 mM. This compound solution was then diluted in aqueous solvent (PBS) in a dilution series from […] in a 96-well assay plate. Solutions were incubated at 37° C. for 2 hours.
In wells with test compounds over their solubility limit, the compound will precipitate, effectively blocking the passage of light and thus increasing the absorbance signal of UV light at a wavelength of 620 nm. Compounds were considered insoluble at a tested concentration if turbidity raises the absorbance more than 10% above control reads.

[2] = Parallel artificial membrane permeability assay (PAMPA); type: in vitro ADME; conditions: PBS, room temperature
Description: Bioavailable drugs must permeate the cellular membranes of the lining of the digestive tract. To estimate the penetrability of exemplary compounds, the in vitro parallel artificial membrane permeability assay (PAMPA) was utilized.
Test compounds must have a standard curve in the final read plate to determine partitioned concentration of each drug. A 6-point standard curve was prepared for each compound from 0 to 200 μM in phosphate-buffered saline (PBS).
Test compound solution (300 μL in PBS) was added to the donor (bottom) well of the PAMPA plate in 5 replicates and PBS vehicle (200 μL) was added to the acceptor (top) wells of appropriate wells to match the loading of the donor plate. The bottom and top of the PAMPA plates were then sandwiched together. The PAMPA plates were then incubated at room temperature for 5 hours. After incubation, 150 μL of donor solution was added to a UV compatible plate containing the corresponding standard curve. 150 μL of acceptor well solution was added adjacent to the corresponding standard curve and donor well samples for that compound. The plate was then read using a UV plate reader.
Permeability and membrane retention were then calculated based on the following formulas:
Permeability (cm/s): (Pe)(cm/s)={−ln [1−CA(t)/Ceq]}/[A*(1/VD+1/VA)*t] (equation 1) • where: • A=filter area (0.3 cm^2); • VD=donor well volume (0.3 mL); • VA=acceptor well volume (0.2 mL); • t=incubation time (seconds); • CA(t)=compound concentration in acceptor well at time t; • CD(t)=compound concentration in donor well at time t; and • Ceq=[CD(t)*VD+CA(t)*VA]/(VD+VA).
Membrane Retention (R)=1−[CD(t)*VD+CA(t)*VA]/(C0*VD) (equation 2) • where: • CD(t), VD, CA(t), and VA are as defined for equation 1, and • C0=initial concentration in donor well (200 uM).

HepG2 cells = assay: Cytotoxicity assay (LDH release); type: cell-based; conditions: 48 hours, 0.1 to 100 μM
Description: This experiment was designed to obtain a preliminary assessment of cytotoxicity.
HepG2 cells were plated in 96-well cell culture plates and allowed to attach overnight at 37° C., 5% CO2 in EMEM+10% FBS. Treatments were made in complete media (EMEM+10% FBS) and included a dilution series of test compounds from 0.1 to 100 μM. Known cytotoxin cerivastatin was used as a positive assay control and prepared at a final concentration of 0.5 μM.
Growth media was replaced with treatment media (EMEM+10% FBS containing test compound dissolved in DMSO) and cells were incubated with test compounds for 48 hours. At the end of the incubation period, supernatant media from each well was transferred to a new plate and LDH assay working solution was added. LDH assay solution undergoes a colorimetric reaction in proportion to the amount of lactate dehydrogenase (an intracellular protein that was only found in the media in the presence of lysed cells) in the media. Color reaction was quantified by measurement of absorbance at a wavelength of 490 nm.
The signal range of the assay was determined by no manipulation in a negative control treatment and full lysis of all cells in a lysis control sample. Compounds that increase the level of cytotoxicity more than 20% above negative control samples were considered cytotoxic in this assay.

T1 sequence (P08581 308-1390 limits assumed): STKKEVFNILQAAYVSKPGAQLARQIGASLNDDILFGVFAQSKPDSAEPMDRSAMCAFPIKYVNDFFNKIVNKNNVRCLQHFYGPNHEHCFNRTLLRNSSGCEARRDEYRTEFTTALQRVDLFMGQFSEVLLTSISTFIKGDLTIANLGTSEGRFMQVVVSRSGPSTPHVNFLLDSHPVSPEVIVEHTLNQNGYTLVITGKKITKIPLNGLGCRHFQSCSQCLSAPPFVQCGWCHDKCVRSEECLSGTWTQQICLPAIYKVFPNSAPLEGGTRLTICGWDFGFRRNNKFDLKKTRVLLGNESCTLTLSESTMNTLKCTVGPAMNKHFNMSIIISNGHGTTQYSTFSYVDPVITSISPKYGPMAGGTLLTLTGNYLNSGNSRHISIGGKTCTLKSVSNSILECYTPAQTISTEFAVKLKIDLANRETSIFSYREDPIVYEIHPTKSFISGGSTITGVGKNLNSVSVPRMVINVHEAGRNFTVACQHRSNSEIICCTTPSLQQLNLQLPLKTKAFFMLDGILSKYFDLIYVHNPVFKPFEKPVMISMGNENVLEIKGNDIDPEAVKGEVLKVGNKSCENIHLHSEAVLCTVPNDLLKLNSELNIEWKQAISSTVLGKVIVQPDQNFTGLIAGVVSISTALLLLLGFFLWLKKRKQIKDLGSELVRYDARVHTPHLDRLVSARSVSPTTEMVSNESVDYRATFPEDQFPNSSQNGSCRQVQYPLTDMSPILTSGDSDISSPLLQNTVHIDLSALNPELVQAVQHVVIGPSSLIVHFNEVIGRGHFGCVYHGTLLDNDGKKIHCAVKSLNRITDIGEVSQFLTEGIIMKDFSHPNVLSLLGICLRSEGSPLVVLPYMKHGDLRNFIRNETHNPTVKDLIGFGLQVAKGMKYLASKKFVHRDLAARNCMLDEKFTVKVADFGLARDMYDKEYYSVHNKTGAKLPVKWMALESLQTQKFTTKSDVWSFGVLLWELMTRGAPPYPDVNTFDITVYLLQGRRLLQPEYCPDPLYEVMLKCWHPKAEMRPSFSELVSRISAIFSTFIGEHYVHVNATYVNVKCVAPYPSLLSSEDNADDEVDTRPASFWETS
T1 sequence (P14210 32-494 limits assumed): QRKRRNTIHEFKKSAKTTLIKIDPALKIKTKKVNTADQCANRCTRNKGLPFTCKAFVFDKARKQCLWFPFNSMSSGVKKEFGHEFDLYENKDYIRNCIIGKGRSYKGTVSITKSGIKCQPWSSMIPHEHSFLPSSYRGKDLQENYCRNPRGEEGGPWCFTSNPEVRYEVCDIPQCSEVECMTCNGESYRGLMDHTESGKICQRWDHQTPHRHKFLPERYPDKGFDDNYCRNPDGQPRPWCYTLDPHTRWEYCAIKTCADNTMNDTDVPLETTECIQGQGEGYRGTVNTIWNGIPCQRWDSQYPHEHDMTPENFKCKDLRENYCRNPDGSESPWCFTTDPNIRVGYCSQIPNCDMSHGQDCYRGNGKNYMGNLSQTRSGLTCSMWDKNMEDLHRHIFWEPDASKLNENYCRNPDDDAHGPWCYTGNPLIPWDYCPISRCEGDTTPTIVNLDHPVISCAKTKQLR

With CCC(C)CN1CC2N(C(=O)c3ccc(O)cc3)CCC(=O)N2[C@@H](C)C1=O (stereo partly drawn) [Compound 3a] the “Potency (augmentation of MET phosphorylation)” value (HGF/MET system) was “−”, the “Potency (cell scattering)” value (MDCK cells) was “−” and the solubility at 2 h [1] was > 300 µM. The Permeability ([2]; 5 hours) was “+++ (+++ indicates permeability below 2 × 10^−6 cm/s)”.

With CCC(C)CN1CC2N(C(=O)c3ccc(O)nc3)CCC(=O)N2[C@@H](C)C1=O (stereo partly drawn) [Compound 4a] the “Potency (augmentation of MET phosphorylation)” value (HGF/MET system) was “+ (+ indicates maximum potency at or above 100 nM)”, the “Potency (cell scattering)” value (MDCK cells) was “+ (+ indicates maximum potency at or above 100 nM)” and the solubility at 2 h [1] was > 300 µM. The Papp at 5 h, 200 µM [2] was > 10 ×10⁻⁶ cm/s and the Cytotoxicity (HepG2 cells) was “++++ (++++ indicates non-toxic at 100 μM)”.

In the case of CCC(C)N1CC2N(Cc3ccc(O)cc3)CCC(=O)N2CC1=O (stereo not drawn) [Compound 9], the “Potency (augmentation of MET phosphorylation)” value (HGF/MET system) is reported as “−”, the “Potency (cell scattering)” value (MDCK cells) is reported as “−” and the solubility at 2 h [1] is reported as > 300 µM. The Papp at 5 h, 200 µM [2] was > 2 ×10⁻⁶ cm/s and the Cytotoxicity (HepG2 cells) was “++++ (++++ indicates non-toxic at 100 μM)”.

With CCC(C)CN1CC2N(Cc3ccc(F)cc3)CCC(=O)N2C(C)C1=O (stereo not drawn) [Compound 42] the “Potency (augmentation of MET phosphorylation)” value (HGF/MET system) was “++++ (++++ indicates maximum potency at or above 0.1 nM)”, the “Potency (cell scattering)” value (MDCK cells) was “+++ (+++ indicates maximum potency at or above 1 nM)” and the solubility at 2 h [1] was > 300 µM. The Papp at 5 h, 200 µM [2] was > 2 ×10⁻⁶ cm/s and the Cytotoxicity (HepG2 cells) was “++++ (++++ indicates non-toxic at 100 μM)”.

For CC1C(=O)N(CCC2CCCC2)CC2N(Cc3ccc(F)cc3)CCC(=O)N12 (stereo not drawn) [Compound 46, 8-(2-cyclopentylethyl)-1-(4-fluorobenzyl)-6-methylhexahydro-4H-pyrazino[1,2-c]pyrimidine-4,7(6H)-dione], the “Potency (augmentation of MET phosphorylation)” value (HGF/MET system) was “−”, the “Potency (cell scattering)” value (MDCK cells) was “−” and the solubility at 2 h [1] was > 300 µM.

For CCC(C)CN1CC2N(Cc3ccc(OC(F)F)cc3)CCC(=O)N2C(CC(=O)O)C1=O (stereo not drawn) [Compound 49, 2-(1-(4-(difluoromethoxy)benzyl)-8-(2-methylbutyl)-4,7-dioxooctahydro-2H-pyrazino[1,2-a]pyrimidin-6-yl)acetic acid], the “Potency (augmentation of MET phosphorylation)” value (HGF/MET system) was “++++ (++++ indicates maximum potency at or above 0.1 nM)”, the “Potency (cell scattering)” value (MDCK cells) was “++++ (++++ indicates maximum potency at or above 0.1 nM)” and the solubility at 2 h [1] was > 300 µM. For the same molecule, the Papp at 5 h, 200 µM [2] was > 2 ×10⁻⁶ cm/s and the Cytotoxicity (HepG2 cells) was “++++ (++++ indicates non-toxic at 100 μM)”.

With CCC(C)CN1CC2N(Cc3ccc(OC(F)F)cc3)CCC(=O)N2C(CC(N)=O)C1=O (stereo not drawn) [Compound 50, 2-(1-(4-(difluoromethoxy)benzyl)-8-(2-methylbutyl)-4,7-dioxooctahydro-2H-pyrazino[1,2-a]pyrimidin-6-yl)acetamide] the “Potency (augmentation of MET phosphorylation)” value (HGF/MET system) was “−”, the “Potency (cell scattering)” value (MDCK cells) was “−” and the solubility at 2 h [1] was > 300 µM.

With CC1C(=O)N(CCC2CCC2)CC2N(Cc3ccc(C(F)(F)F)c(Cl)c3)CCC(=O)N12 (stereo not drawn) [Compound 51] the “Potency (augmentation of MET phosphorylation)” value (HGF/MET system) was “+++ (+++ indicates maximum potency at or above 1 nM)”, the “Potency (cell scattering)” value (MDCK cells) was “+++ (+++ indicates maximum potency at or above 1 nM)” and the solubility at 2 h [1] was > 100 µM. For the same molecule, the Papp at 5 h, 200 µM [2] was < 2 ×10⁻⁶ cm/s and the Cytotoxicity (HepG2 cells) was “+++ (+++ indicates non-toxic at 10 μM)”.

For CCC(C)CN1CC2N(Cc3ccc(OC(F)F)cc3)CCC(=O)N2C(CC(C)C)C1=O (stereo not drawn) [Compound 53, 1-(4-(difluoromethoxy)benzyl)-6-isobutyl-8-(2-methylbutyl)hexahydro-4H-pyrazino[1,2-a]pyrimidine-4,7(6H)-dione], the “Potency (augmentation of MET phosphorylation)” value (HGF/MET system) was “++ (++ indicates maximum potency at or above 10 nM)”, the “Potency (cell scattering)” value (MDCK cells) was “+++ (+++ indicates maximum potency at or above 1 nM)” and the solubility at 2 h [1] was > 100 µM. For the same molecule, the Papp at 5 h, 200 µM [2] was < 2 ×10⁻⁶ cm/s and the Cytotoxicity (HepG2 cells) was “+++ (+++ indicates non-toxic at 10 μM)”.

With CC1C(=O)N(CCC2CCCC2)CC2N(Cc3ccc(C(F)(F)F)c(Cl)c3)CCC(=O)N12 (stereo not drawn) [Compound 54] the “Potency (augmentation of MET phosphorylation)” value (HGF/MET system) was “−”, the “Potency (cell scattering)” value (MDCK cells) was “−” and the solubility at 2 h [1] was > 30 µM. For the same molecule, the Papp at 5 h, 200 µM [2] was < 2 ×10⁻⁶ cm/s and the Cytotoxicity (HepG2 cells) was “+++ (+++ indicates non-toxic at 10 μM)”.
